Values joined by “and” are separate entries in the source; they are usually repeats but may differ in a detail not shown here. Equal entries are not always repeated.
Test system: 349418-098-R-PDC complex spheroid viability
Assay: Anticancer human tumor 349418-098-R-PDC patient-derived lung adenocarcinoma cell line growth inhibition [RAS]
Settings: for viability, T/C: stronger effect = lower value
Procedure, shortened: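 Tumour cells grown as complex spheroids with HUVEC endothelial cells and mesenchymal stem cells, treated with RAS pathway inhibitor combinations. Each agent spans half-log steps from near clinical Cmax, or 10 microM where Cmax is unknown.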
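Also: spheroids exposed to compound for seven days before viability readout.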

## C[C@@H](NC(=O)c1ncnc(N)c1Cl)c1ncc(C(=O)Nc2cc(C(F)(F)F)c(Cl)cn2)s1 + C=CC(=O)N1CCN(c2nc(OCC3CCCN3C)nc3c(F)c(-c4nc(N)cc(C)c4C(F)(F)F)c(Cl)cc23)C(C)C1
Curve of first compound, second compound 0.00316 µM
  IC50: 0.954 µM
Curve of first compound, second compound 0.01 µM
  IC50: 1.51 µM
Curve of first compound, second compound 0.0316 µM
  IC50: 2.04 µM
Curve of first compound, second compound 0.1 µM
  IC50: 2.18 µM
Curve of first compound, second compound 0.316 µM
  IC50: 3.12 µM
Curve of first compound, second compound 1 µM
  IC50: 3.86 µM
Second compound 0.00316 µM, first compound 0.0316 µM
  viability, T/C: 102%
Second compound 0.00316 µM, first compound 0.1 µM
  viability, T/C: 124%
Second compound 0.00316 µM, first compound 0.316 µM
  viability, T/C: 88.9%
Second compound 0.00316 µM, first compound 1 µM
  viability, T/C: 50%
Second compound 0.00316 µM, first compound 3.16 µM
  viability, T/C: 39%
Second compound 0.00316 µM, first compound 10 µM
  viability, T/C: 32.6%
Second compound 0.01 µM, first compound 0.0316 µM
  viability, T/C: 78.6%
Second compound 0.01 µM, first compound 0.1 µM
  viability, T/C: 115%
Second compound 0.01 µM, first compound 0.316 µM
  viability, T/C: 68.8%
Second compound 0.01 µM, first compound 1 µM
  viability, T/C: 59.1%
Second compound 0.01 µM, first compound 3.16 µM
  viability, T/C: 41.3%
Second compound 0.01 µM, first compound 10 µM
  viability, T/C: 31.3%
Second compound 0.0316 µM, first compound 0.0316 µM
  viability, T/C: 108%
Second compound 0.0316 µM, first compound 0.1 µM
  viability, T/C: 113%
Second compound 0.0316 µM, first compound 0.316 µM
  viability, T/C: 65.1%
Second compound 0.0316 µM, first compound 1 µM
  viability, T/C: 62.8%
Second compound 0.0316 µM, first compound 3.16 µM
  viability, T/C: 50.1%
Second compound 0.0316 µM, first compound 10 µM
  viability, T/C: 29.6%
Second compound 0.1 µM, first compound 0.0316 µM
  viability, T/C: 80.6%
Second compound 0.1 µM, first compound 0.1 µM
  viability, T/C: 106%
Second compound 0.1 µM, first compound 0.316 µM
  viability, T/C: 85.3%
Second compound 0.1 µM, first compound 1 µM
  viability, T/C: 60.9%
Second compound 0.1 µM, first compound 3.16 µM
  viability, T/C: 46.8%
Second compound 0.1 µM, first compound 10 µM
  viability, T/C: 41%
Second compound 0.316 µM, first compound 0.0316 µM
  viability, T/C: 60.6%
Second compound 0.316 µM, first compound 0.1 µM
  viability, T/C: 113%
Second compound 0.316 µM, first compound 0.316 µM
  viability, T/C: 85.7%
Second compound 0.316 µM, first compound 1 µM
  viability, T/C: 67.1%
Second compound 0.316 µM, first compound 3.16 µM
  viability, T/C: 52.8%
Second compound 0.316 µM, first compound 10 µM
  viability, T/C: 31.2%
Second compound 1 µM, first compound 0.0316 µM
  viability, T/C: 65.5%
Second compound 1 µM, first compound 0.1 µM
  viability, T/C: 111%
Second compound 1 µM, first compound 0.316 µM
  viability, T/C: 84.2%
Second compound 1 µM, first compound 1 µM
  viability, T/C: 64.1%
Second compound 1 µM, first compound 3.16 µM
  viability, T/C: 58.4%
Second compound 1 µM, first compound 10 µM
  viability, T/C: 30%

## CC1(C)CCC(Nc2ncc(C(F)(F)F)c(-c3c[nH]c4c(P(C)(C)=O)c(C#N)ccc34)n2)CN1 (stereo not given)
Compound 0.000949 µM
  viability, T/C: 65.3% [middle of 4 runs]
Compound 0.003 µM
  viability, T/C: 24.7% [middle of 4 runs]
Compound 0.00949 µM
  viability, T/C: 15.5% [middle of 4 runs]
Compound 0.03 µM
  viability, T/C: 9.86% [middle of 4 runs]
Compound 0.0949 µM
  viability, T/C: 8.72% [middle of 4 runs]
Compound 0.3 µM
  viability, T/C: 8.1% [middle of 4 runs]
Curve of compound
  IC50: 0.00147 µM and < 0.000949 µM and 0.00151 µM

## CC(C)NCC(C(=O)N1CCN(c2ncnc3c2C(C)CC3O)CC1)c1ccc(Cl)cc1 (stereo not given)
Compound 0.1 µM
  viability, T/C: 81.7% [middle of 4 runs]
Compound 0.316 µM
  viability, T/C: 62.2% [middle of 4 runs]
Compound 1 µM
  viability, T/C: 37.9% [middle of 4 runs]
Compound 3.16 µM
  viability, T/C: 18% [middle of 4 runs]
Compound 10 µM
  viability, T/C: 12.6% [middle of 4 runs]
Curve of compound
  IC50: 476 nM [middle of 4 runs]
